Structures can show the parent of a compound that is named as a salt.
Target: postjunctional alpha1 receptors
Test: postjunctional alpha1 agonist activity (EC50), isolated segment of rabbit ear artery
Details: smooth muscle tension, dose producing 50% of the maximum response (norepinephrine)
From the text: The assay procedure is described by Steinsland et al. J. Pharm. Exp. Ther. 184:346-356, 1973. Briefly, this test comprises sacrificing a white rabbit and removing the central ear artery. The artery is cannulated at both ends and placed in a perfusion chamber. The artery is simultaneously perfused intraluminally and superfused extraluminally with Krebs solution. The compound to be tested can be administered by means of either the intraluminal or extraluminal flow. The sympathetic nerve is excited at four minute intervals by field stimulation. The selective alpha1 agonist activity is measured as the ability to increase perfusion pressure (mm Hg.) without inhibiting response to sympathetic nerve stimulation.
A quantitation of postjunctional alpha1 agonist activity (EC50) is determined for compounds showing activity in the above test. This is accomplished by employing an isolated segment of rabbit ear artery. The segment is mounted in a chamber superfused with oxygenated Krebs solution. The segment is suspended between two tungsten wires, one attached to the chamber, the other to a force-displacement transducer so that smooth muscle tension can be measured directly. Before administration of the test drug, norepinephrine is administered in increasing concentration (10^-8 M to 3×10^-6 M) to determine maximum response of the artery. […]

## COc1ccc(OC)c2c1CCC1NCCCC21 (stereo not shown) [7,10-dimethoxy-1,2,3,4,4a,5,6,10-b-octahydro-benzo[f]quinoline hydrochloride]
  EC50: 190 nM
